We go through 15 compounds from ChEMBL document CHEMBL4390702, “Discovery of novel phenoxybenzamide analogues as Raf/HDAC dual inhibitors” (Bioorg Med Chem Lett, 2019).

Activity calls are given as the source filed them. The calls are words filed in the database; no cut-off is given here.

In assay [1] the target is Serine/threonine-protein kinase B-raf (Homo sapiens, UniProt P15056, V600E). The experiment in a line: Inhibition of recombinant human N-terminal GST-tagged BRAF V600E mutant catalytic domain (416 to 766 residues) expressed in baculovirus expression system using human His6-tagged MEK1 (K97R) as substrate preincubated for 20 mins followed by [33P-gamma]ATP addition and measured after 2 hrs by filter-binding assay.

For assay [2], the target named is T1, Histone deacetylase 1 (Homo sapiens, UniProt Q13547). Nature of the assay: Inhibition of recombinant full-length human C-terminal FLAG/His-tagged HDAC1 expressed in baculovirus infected Sf9 insect cells using Fluor-de-Lys as substrate measured after 10 mins by fluorescence assay.
In the next assay the test system is K562. Nature of the assay: Antiproliferative activity against human K562 cells measured after 48 hrs by MTT assay. In kind it is functional, cell-based. The conditions noted are these: K562, 48 h.
For the next assay, the system named is MV4-11. The experiment in a line: Antiproliferative activity against human MV4-11 cells measured after 48 hrs by MTT assay. It is filed as functional, cell-based. Conditions: MV4-11, 48 h.
Another assay relates to HepG2. The experiment in a line: Antiproliferative activity against human HepG2 cells measured after 48 hrs by MTT assay. It is filed as functional, cell-based. The conditions noted are these: HepG2, 48 h.
The test system of another assay is MDA-MB-468. Nature of the assay: Antiproliferative activity against human MDA-MB-468 cells measured after 48 hrs by MTT assay. In kind it is functional, cell-based. Conditions: MDA-MB-468, 48 h.
For assay [3], the target named is T1, Histone deacetylase 1. Nature of the assay: Inhibition of recombinant full-length human C-terminal FLAG/His-tagged HDAC1 expressed in baculovirus infected Sf9 insect cells at 50 uM using Fluor-de-Lys as substrate measured after 10 mins by fluorescence assay.
Assay [4] concerns the target T1, Histone deacetylase 1. The experiment in a line: Inhibition of HDAC1 (unknown origin).
Assay [5] has as its target T2, Protein deacetylase HDAC6 (Homo sapiens) (UniProt Q9UBN7).
T2 sequence (whole entry): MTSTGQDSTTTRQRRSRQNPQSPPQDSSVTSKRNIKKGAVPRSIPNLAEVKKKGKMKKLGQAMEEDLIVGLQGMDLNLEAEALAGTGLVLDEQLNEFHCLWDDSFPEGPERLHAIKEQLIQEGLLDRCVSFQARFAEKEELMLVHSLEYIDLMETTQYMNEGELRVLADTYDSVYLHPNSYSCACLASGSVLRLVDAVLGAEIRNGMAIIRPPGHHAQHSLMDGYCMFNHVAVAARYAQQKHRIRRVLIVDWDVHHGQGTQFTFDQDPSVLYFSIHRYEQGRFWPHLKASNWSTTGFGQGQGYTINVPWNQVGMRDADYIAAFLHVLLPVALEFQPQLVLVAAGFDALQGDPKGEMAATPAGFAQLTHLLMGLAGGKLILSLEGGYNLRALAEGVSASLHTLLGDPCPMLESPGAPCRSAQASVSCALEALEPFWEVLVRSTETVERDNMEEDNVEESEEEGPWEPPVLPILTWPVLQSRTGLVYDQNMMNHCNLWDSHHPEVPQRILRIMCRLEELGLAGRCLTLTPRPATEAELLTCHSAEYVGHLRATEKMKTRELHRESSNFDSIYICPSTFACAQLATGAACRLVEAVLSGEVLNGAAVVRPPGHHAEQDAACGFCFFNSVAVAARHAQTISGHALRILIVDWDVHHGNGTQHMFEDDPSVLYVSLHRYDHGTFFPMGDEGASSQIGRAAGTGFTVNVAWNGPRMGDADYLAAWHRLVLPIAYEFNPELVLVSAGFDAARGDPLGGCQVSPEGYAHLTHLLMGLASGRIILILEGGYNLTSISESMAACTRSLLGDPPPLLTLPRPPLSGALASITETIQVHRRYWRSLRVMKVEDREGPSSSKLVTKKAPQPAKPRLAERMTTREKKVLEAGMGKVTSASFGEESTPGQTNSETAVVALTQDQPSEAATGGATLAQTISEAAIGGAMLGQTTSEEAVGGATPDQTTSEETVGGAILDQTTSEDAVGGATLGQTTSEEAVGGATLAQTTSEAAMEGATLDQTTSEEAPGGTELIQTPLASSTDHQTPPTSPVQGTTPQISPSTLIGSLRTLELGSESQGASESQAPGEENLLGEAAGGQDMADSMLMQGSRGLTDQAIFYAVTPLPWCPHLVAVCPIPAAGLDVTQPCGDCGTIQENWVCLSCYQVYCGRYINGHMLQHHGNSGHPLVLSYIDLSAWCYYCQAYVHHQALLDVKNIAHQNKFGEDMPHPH
Nature of the assay: Inhibition of recombinant human HDAC6 at 50 uM using Fluor-de-Lys as substrate measured after 10 mins by fluorescence assay.

Assay [6] deals with T3, Histone deacetylase 8 (Homo sapiens) (UniProt Q9BY41).
T3 sequence (whole entry): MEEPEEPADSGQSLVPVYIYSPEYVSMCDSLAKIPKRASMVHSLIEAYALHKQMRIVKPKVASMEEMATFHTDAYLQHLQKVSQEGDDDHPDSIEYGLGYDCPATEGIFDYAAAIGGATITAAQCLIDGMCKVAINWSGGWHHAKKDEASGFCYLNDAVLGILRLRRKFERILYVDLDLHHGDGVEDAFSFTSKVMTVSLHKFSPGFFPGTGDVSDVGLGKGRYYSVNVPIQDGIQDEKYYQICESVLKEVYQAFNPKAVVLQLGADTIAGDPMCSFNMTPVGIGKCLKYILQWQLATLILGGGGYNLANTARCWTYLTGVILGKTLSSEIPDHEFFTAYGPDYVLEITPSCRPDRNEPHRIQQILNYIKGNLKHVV
The experiment in a line: Inhibition of recombinant full-length human C-terminal His-tagged HDAC8 expressed in baculovirus infected Sf9 insect cells at 50 uM using Fluor-de-Lys as substrate measured after 10 mins by fluorescence assay.

In assay [7] the target is T4, Serine/threonine-protein kinase A-Raf (Homo sapiens, UniProt P10398).
T4 sequence (P10398 whole entry): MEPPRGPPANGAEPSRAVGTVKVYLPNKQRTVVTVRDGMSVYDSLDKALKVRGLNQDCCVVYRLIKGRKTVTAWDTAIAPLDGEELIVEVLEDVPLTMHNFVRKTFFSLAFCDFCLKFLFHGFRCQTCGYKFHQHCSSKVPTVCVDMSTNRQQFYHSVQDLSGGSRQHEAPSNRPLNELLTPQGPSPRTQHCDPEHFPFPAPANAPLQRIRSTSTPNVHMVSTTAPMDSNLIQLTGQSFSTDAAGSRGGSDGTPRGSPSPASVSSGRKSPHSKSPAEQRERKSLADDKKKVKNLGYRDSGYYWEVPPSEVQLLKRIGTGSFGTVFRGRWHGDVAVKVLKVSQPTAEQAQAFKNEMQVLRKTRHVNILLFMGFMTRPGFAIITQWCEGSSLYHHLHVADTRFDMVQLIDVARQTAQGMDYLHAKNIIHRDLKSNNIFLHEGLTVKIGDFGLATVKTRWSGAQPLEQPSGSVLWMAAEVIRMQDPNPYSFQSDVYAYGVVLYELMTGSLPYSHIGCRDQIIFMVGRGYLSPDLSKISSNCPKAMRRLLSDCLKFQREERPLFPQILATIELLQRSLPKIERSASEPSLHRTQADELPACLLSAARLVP
The experiment in a line: Inhibition of human ARAF using human His6-tagged MEK1 (K97R) as substrate preincubated for 20 mins followed by [33P-gamma]ATP addition and measured after 2 hrs by filter-binding assay.

In assay [8] the target is RAF proto-oncogene serine/threonine-protein kinase (Homo sapiens, UniProt P04049). The experiment in a line: Inhibition of human CRAF using human His6-tagged MEK1 (K97R) as substrate preincubated for 20 mins followed by [33P-gamma]ATP addition and measured after 2 hrs by filter-binding assay.
Chain of RAF proto-oncogene serine/threonine-protein kinase (P04049 whole entry): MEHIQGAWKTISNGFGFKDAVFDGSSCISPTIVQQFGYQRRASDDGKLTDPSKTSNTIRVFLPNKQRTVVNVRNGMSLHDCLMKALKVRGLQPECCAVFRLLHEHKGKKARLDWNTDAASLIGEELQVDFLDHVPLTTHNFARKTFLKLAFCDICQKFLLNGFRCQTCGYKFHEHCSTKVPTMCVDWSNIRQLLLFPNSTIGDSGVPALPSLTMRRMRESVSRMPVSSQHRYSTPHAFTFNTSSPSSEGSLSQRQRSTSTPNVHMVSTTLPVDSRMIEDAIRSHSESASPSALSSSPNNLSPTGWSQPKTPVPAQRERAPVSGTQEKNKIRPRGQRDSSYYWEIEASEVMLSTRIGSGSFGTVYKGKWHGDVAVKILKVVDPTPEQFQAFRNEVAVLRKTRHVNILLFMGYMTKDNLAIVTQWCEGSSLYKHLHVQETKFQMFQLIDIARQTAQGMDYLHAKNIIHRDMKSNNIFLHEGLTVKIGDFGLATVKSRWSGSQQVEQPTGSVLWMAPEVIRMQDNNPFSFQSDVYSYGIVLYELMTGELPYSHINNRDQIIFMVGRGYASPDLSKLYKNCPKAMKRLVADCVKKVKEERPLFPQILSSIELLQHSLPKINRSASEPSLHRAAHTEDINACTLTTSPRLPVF

T1 sequence (Q13547 whole entry): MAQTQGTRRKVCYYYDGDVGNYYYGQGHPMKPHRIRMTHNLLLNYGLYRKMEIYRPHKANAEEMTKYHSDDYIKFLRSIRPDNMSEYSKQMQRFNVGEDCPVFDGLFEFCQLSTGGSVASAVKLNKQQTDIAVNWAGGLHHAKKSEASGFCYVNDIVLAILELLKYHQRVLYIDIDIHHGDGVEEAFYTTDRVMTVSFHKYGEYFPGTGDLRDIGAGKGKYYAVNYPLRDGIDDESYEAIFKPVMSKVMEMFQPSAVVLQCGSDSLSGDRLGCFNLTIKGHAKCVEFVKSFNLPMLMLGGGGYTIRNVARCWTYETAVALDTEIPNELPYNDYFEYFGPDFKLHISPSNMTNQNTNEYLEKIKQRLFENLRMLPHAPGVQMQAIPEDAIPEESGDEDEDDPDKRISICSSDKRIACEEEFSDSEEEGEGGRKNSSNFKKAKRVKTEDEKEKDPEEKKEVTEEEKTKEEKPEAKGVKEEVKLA

Take `CNC(=O)c1cc(Oc2ccc(NC(=O)c3cccc(O)c3)cc2)ccc1N`: the IC50 in [1] was found to be 4060 nM; on Histone deacetylase 1 [2] it was 1950 nM.

Turning to `CNC(=O)c1cc(Oc2ccc(NC(=O)c3ccc(N)cc3)cc2)ccc1N`, the IC50 in [1] turned out to be 942 nM; at Histone deacetylase 1 [2] it was 2270 nM.

For `CNC(=O)c1cc(Oc2ccc(NC(=O)c3ccc4ccccc4c3)cc2)ccc1N`, the IC50 in [1] is 237 nM; at Histone deacetylase 1 [2], 8210 nM; with K562, 10300 nM; with MV4-11, 8210 nM; in the assay with HepG2 it was 7280 nM; in the assay with MDA-MB-468 it was 3910 nM.

Turning to `CNC(=O)c1cc(Oc2ccc(NC(=O)c3ccc(F)cc3)cc2)ccc1N`, the IC50 in assay [1] was 303 nM; on Histone deacetylase 1 [2], 7650 nM; in the assay on K562 it was 6430 nM; with MV4-11 it was 5320 nM; in the assay on HepG2 it was 7560 nM; in the assay on MDA-MB-468, 5760 nM.

`NC(=O)c1cc(Oc2ccc(NC(=O)c3ccc(Cl)c(C(F)(F)F)c3)cc2)ccc1N`: the half-inhibitory concentration (IC50) was 688 nM in [1] and 2790 nM on Histone deacetylase 1 [2].

Turning to `CNC(=O)c1cc(Oc2ccc(NC(=O)c3cccc(N)c3)cc2)ccc1N`, the figures for the IC50 (in assay [1]; on Histone deacetylase 1 [2]) were 3260 nM and 1030 nM, respectively.

`CNC(=O)c1cc(Oc2ccc(NC(=O)c3ccccc3)cc2)ccc1N`: the half-maximal inhibitory concentration (IC50) turned out to be 342 nM in assay [1] and 6190 nM on Histone deacetylase 1 [2].

On to `CN(C)C(=O)c1cc(Oc2ccc(NC(=O)c3ccc(Cl)c(C(F)(F)F)c3)cc2)ccc1N`, for which the IC50 in assay [1] is 4170 nM. Moreover, the inhibition result at Histone deacetylase 1 [3] is “inactive”.

As for `CCNC(=O)c1cc(Oc2ccc(NC(=O)c3ccc(Cl)c(C(F)(F)F)c3)cc2)ccc1N`, the IC50 in assay [1] was 354 nM; at Histone deacetylase 1 [2], 1620 nM.

On to `CNC(=O)c1cc(Oc2ccc(NC(=O)c3cccnc3)cc2)ccc1N`, for which the results for the IC50 (in [1]; on Histone deacetylase 1 [2]; against Histone deacetylase 1 [4]) were 1780 nM, 5230 nM and 5230 nM, respectively.

For `CNC(=O)c1cc(Oc2ccc(NC(=O)c3ccc(Cl)cc3)cc2)ccc1N`, the concentration for half-maximal inhibition (IC50) in assay [1] turned out to be 165 nM; at Histone deacetylase 1 [2] it was 7110 nM; in the assay with K562 it was 7120 nM; in the assay on MV4-11, 9230 nM; in the assay on HepG2 it was 5130 nM; with MDA-MB-468, 4240 nM.

For `Nc1cc(F)ccc1NC(=O)c1ccc(CNC(=O)/C=C/c2cccnc2)cc1` [TUCIDINOSTAT], the inhibition result in [5] and in [6] was “inactive” in each case. For the same compound, the IC50 with K562 was 870 nM; in the assay on MV4-11, 3730 nM; in the assay on HepG2, 4890 nM; with MDA-MB-468 it was 2650 nM.

Take `CNC(=O)c1cc(Oc2ccc(NC(=O)c3ccc(OC)cc3)cc2)ccc1N`: the IC50 in [1] was determined as 187 nM; on Histone deacetylase 1 [2] it was 2460 nM; in assay [7], 211 nM; in assay [8] it was 652 nM; in the assay on K562 it was 5220 nM; in the assay with MV4-11, 1870 nM. For the same compound, the results for the 50% inhibitory concentration (IC50) in the assay on HepG2 and in the assay with MDA-MB-468 were 6650 nM and 950 nM, respectively. Further, the inhibition result in [5] and in [6] was “inactive” throughout.

As to `CNC(=O)c1cc(Oc2ccc(NC(=O)Nc3ccc(Cl)c(C(F)(F)F)c3)cc2)ccn1` [SORAFENIB], the IC50 is 17200 nM with K562, 510 nM with MV4-11, 3040 nM in the assay with HepG2 and 12200 nM with MDA-MB-468.

With `CNC(=O)c1cc(Oc2ccc(NC(=O)c3ccc(Cl)c(C(F)(F)F)c3)cc2)ccc1N`, the IC50 is 73 nM in [1]; 1170 nM on Histone deacetylase 1 [2]; 183 nM in assay [7]; 92 nM in [8]; 2730 nM in the assay on K562; 1120 nM in the assay on MV4-11. The half-maximal inhibitory concentration (IC50) turned out to be 1330 nM with HepG2 and 570 nM in the assay with MDA-MB-468. Also, the inhibition entry in [5] and in [6] was “inactive” throughout.
